Source: US20060154954A1, “Combinations and use of selected pharmaceutically active compounds” (ALTANA PHARMA AG, priority 2003, published 2006)

Test system: gastric lesion
Test: Gastric lesions after pylorus ligation and oral acetylsalicylic acid in the rat (Shay rat, modified by Okabe)
Type: in vivo
Details: 4 hours after pylorus ligation and oral 100 mg/kg acetylsalicylic acid
[1] = 1.0 μmol/kg intraduodenally, read-out: Reduction of lesion index versus control in %

COCCO[C@@H]1c2ccn3cc(C)nc3c2N[C@H](c2ccccc2)[C@H]1O [Example 15, (7R,8R,9R)-8-hydroxy-2-methyl-7-(2-methoxyethoxy)-9-phenyl-7,8,9,10-tetrahydroimidazo[1,2-h][1,7]naphthyridine]
inhibition in vivo at 6 µmol/kg (6.0 μmol/kg intraduodenally, read-out: Reduction of lesion index versus control in %): 100%

COCCO[C@@H]1c2ccn3c(C)c(C)nc3c2N[C@H](c2ccccc2)[C@H]1OC(=O)CN(C)C [Example 10, (7R,8R,9R)-7-(2-methoxyethoxy)-2,3-dimethyl-8-(N,N-dimethylaminomethylcarbonyloxy)-9-phenyl-7,8,9,10-tetrahydroimidazo[1,2-h][1,7]naphthyridine]
inhibition in vivo at 1 µmol/kg [1]: 100%

COCCO[C@@H]1c2ccn3c(C)c(C)nc3c2N[C@H](c2ccccc2)[C@H]1O [Example 1, (7R,8R,9R)-8-hydroxy-7-(2-methoxyethoxy)-2,3-dimethyl-9-phenyl-7,8,9,10-tetrahydro-imi-dazo[1,2-h][1,7]naphthyridine]
Reduction of lesion index versus control in % (3.0 μmol/kg intraduodenally): 100%

Cc1nc2c3c(ccn2c1C)[C@@](C)(O)[C@H](O)[C@@H](c1ccccc1)N3 [Example 12, (7R,8R,9R)-2,3,7-trimethyl-7,8-dihydroxy-9-phenyl-7,8,9,10-tetrahydroimidazo[1,2-h][1,7]naphthyridine]
inhibition in vivo at 1 µmol/kg [1]: 100%

COCCO[C@@H]1c2ccn3c(C)c(C)nc3c2O[C@H](c2ccccc2)[C@@H]1O [Example 13, (7R,8R,9R)-2,3-dimethyl-8-hydroxy-7-(2-methoxyethoxy)-9-phenyl-7H-8,9-dihydropyrano[2,3-c]imidazo[1,2-a]pyridine]
Reduction of lesion index versus control in % (1.0 μmol/kg intraduodenally): 100%

CO[C@H]1c2ccn3c(C)c(C)nc3c2N[C@H](c2ccccc2)[C@H]1O [Example 3, (7S, 8R, 9R)-2,3-dimethyl-8-hydroxy-7-methoxy-9-phenyl-7,8,9,10-tetrahydroimidazo[1,2-h][1,7]naphthyridine]
inhibition in vivo at 10 µmol/kg (10.0 μmol/kg intraduodenally, read-out: Reduction of lesion index versus control in %): 100%

COCCO[C@@H]1c2ccn3c(C)c(C)nc3c2N[C@H](c2ccccc2)[C@H]1OC(C)=O [Example 7, (7R,8R,9R)-8-acetoxy-7-(2-methoxyethoxy)-2,3-dimethyl-9-phenyl-7,8,9,10-tetrahydroimidazo[1,2-h][1,7]naphthyridine]
inhibition in vivo at 1 µmol/kg [1]: 100%

COCCO[C@@H]1c2ccn3c(Cl)c(C)nc3c2N[C@H](c2ccccc2)[C@H]1O [Example 16, (7R,8R,9R)-3-chloro-8-hydroxy-7-(2-methoxyethoxy)-2-methyl-9-phenyl-7.8.9.10-tetrahydroimidazo[1.2-h][1.7]naphthyridine]
Reduction of lesion index versus control in % (6.0 μmol/kg intraduodenally): 100%

CCO[C@H]1c2ccn3c(C)c(C)nc3c2N[C@H](c2ccccc2)[C@H]1O [Example 5, (7S, 8R, 9R)-2,3-dimethyl-7-ethoxy-8-hydroxy-9-phenyl-7,8,9,10-tetrahydroimidazo[1,2-h][1,7]naphthyridine]
inhibition in vivo at 1 µmol/kg [1]: 100%

CCO[C@@H]1c2ccn3c(C)c(C)nc3c2N[C@H](c2ccccc2)[C@H]1O [Example 4, (7R, 8R, 9R)-2,3-dimethyl-7-ethoxy-8-hydroxy-9-phenyl-7,8,9,10-tetrahydroimidazo[1,2-h][1,7]naphthyridine]
inhibition in vivo at 1 µmol/kg [1]: 100%

COCCO[C@@H]1c2ccn3c(Cl)c(C)nc3c2O[C@H](c2ccccc2)[C@@H]1O [Example 17, (7R,8R,9R)-3-chloro-8-hydroxy-7-(2-methoxyethoxy)-2-methyl-9-phenyl-7H-8,9-dihydro-pyrano[2,3-c]imidazo[1,2-a]pyridine]
Reduction of lesion index versus control in % (1.0 μmol/kg intraduodenally): 100%

Cc1nc2c3c(ccn2c1C)[C@@H](O)[C@@](C)(O)[C@@H](c1ccccc1)N3 [Example 11, (7R,8S,9R)-2,3,8-trimethyl-7,8-dihydroxy-9-phenyl-7,8,9,10-tetrahydroimidazo[1,2-h][1,7]naphthyridine]
inhibition in vivo at 1 µmol/kg [1]: 100%

COCCO[C@@H]1c2ccn3c(C)c(C)nc3c2N[C@H](c2ccccc2)[C@H]1O [Example 6, (7R, 8R, 9R)-2,3-dimethyl-8-hydroxy-7-(2-methoxyethoxy)-9-phenyl-7,8,9,10-tetrahydroimidazo[1,2-h][1,7]naphthyridine]
inhibition in vivo at 1 µmol/kg [1]: 100%

COCCO[C@@H]1c2ccn3c(C)c(C)nc3c2N[C@H](c2ccccc2)[C@H]1OC(=O)OC [Example 9, (7R,8R,9R)-8-methoxycarbonyloxy-7-(2-methoxyethoxy)-2,3-dimethyl-9-phenyl-7,8,9,10-tetrahydroimidazo[1,2-h][1,7]naphthyridine]
inhibition in vivo at 1 µmol/kg [1]: 100%

CO[C@@H]1c2ccn3c(C)c(C)nc3c2N[C@H](c2ccccc2)[C@H]1O [Example 2, (7R, 8R, 9R)-2,3-dimethyl-8-hydroxy-7-methoxy-9-phenyl-7,8,9,10-tetrahydroimidazo[1,2-h][1,7]naphthyridine]
inhibition in vivo at 1 µmol/kg [1]: 100%

CCO[C@@H]1c2ccn3c(C)c(C)nc3c2O[C@H](c2ccccc2)[C@@H]1O [Example 14, (7R,8R,9R)-2,3-dimethyl-8-hydroxy-7-ethoxy-9-phenyl-7H-8,9-dihydropyrano[2,3-c]imidazo[1,2-a]pyridine]
Reduction of lesion index versus control in % (1.0 μmol/kg intraduodenally): 100%

COCCO[C@@H]1c2ccn3c(C)c(C)nc3c2N[C@H](c2ccccc2)[C@H]1OC(=O)c1ccccc1 [Example 8, (7R,8R,9R)-8-benzoyloxy-7-(2-methoxyethoxy)-2,3-dimethyl-9-phenyl-7,8,9,10-tetrahydroimidazo[1,2-h][1,7]naphthyridine]
inhibition in vivo at 1 µmol/kg [1]: 100%
